# “Also recorded” adds a separate entry of the source.
# Legend:
# Type in all cases: cell-based
# [1] = target: T1, ClC-4A (Mus musculus, UniProt Q61418); assay: Two-electrode voltage-clamp recording of ClC-4A expressed in Xenopus oocytes, chloride channel inhibitor effect
# T1 construct: expressed in transfected cells; host or cells: Xenopus laevis oocytes injected with in vitro transcribed cRNA
# T1 sequence (Q61418 61-747): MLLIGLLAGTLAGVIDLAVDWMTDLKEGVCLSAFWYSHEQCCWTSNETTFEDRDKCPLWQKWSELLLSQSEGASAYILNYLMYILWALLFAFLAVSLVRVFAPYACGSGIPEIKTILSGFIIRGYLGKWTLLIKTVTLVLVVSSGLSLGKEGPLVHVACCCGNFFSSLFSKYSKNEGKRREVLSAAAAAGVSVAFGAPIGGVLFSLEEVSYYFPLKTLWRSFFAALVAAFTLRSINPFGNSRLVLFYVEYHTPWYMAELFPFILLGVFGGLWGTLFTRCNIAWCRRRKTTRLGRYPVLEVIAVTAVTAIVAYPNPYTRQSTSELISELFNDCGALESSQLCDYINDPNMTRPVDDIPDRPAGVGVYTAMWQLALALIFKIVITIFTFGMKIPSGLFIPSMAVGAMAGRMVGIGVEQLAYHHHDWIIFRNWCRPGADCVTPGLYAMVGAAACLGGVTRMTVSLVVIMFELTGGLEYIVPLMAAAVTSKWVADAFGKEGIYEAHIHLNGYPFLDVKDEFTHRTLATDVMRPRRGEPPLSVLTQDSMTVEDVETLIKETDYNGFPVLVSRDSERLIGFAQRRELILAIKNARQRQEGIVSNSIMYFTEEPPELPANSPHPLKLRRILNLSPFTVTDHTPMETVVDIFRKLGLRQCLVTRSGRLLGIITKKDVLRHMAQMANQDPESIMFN
# Description: (§1) ClC-4 and ClC-4A cDNAs were subcloned into the expression vector pCR Blunt II TOPO. Capped sense cRNA was synthesized from the linearized expression constructs by T7 RNA polymerase with nMessage mMachine in vitro transcription kit and tailed with polyA tailing kit (Ambion). The synthesized cRNA products were phenol extracted, ethyl alcohol precipitated, and then dissolved in nuclease-free water at about 0.5 ng/nl for injection. Dumont stage V or VI oocytes were obtained from adult female laboratory bred Xenopus laevis, and their follicles were removed by collagenase digestion. […] Membrane currents were recorded using the two-electrode voltage-clamp technique in ND96 solution (96 mM NaCl, 2 mM KCl, 1.8 mM CaCl2, 1 mM MgCl2, 5 mM Na-HEPES, pH 7.4). […]
# (§2) Recording and current-passing micropipettes with tip resistance <5 MΩ when filled with 3 M KCl were pulled from glass capillaries (A-M Systems Inc., Carlsburg, Wash., USA) using a horizontal puller (Suffer P-80/PC). Currents were recorded with a GeneClamp 500 amplifier, digitized with a Digidata 1200 A/D-D/A system, and stored on a computer running pCLAMP 6 software (all from Axon Instruments, Foster City, Calif., USA). […]
# [2] = target: T2, mouse ClC-4 (Mus musculus, UniProt Q61418); assay: Two-electrode voltage-clamp recording of mouse ClC-4 expressed in Xenopus oocytes, chloride channel inhibitor effect
# T2 construct: a pair of PCR primers was designed to encompass the entire coding region; expressed in transfected cells; host or cells: Xenopus laevis oocytes injected with in vitro transcribed cRNA
# T2 sequence (Q61418 1-747): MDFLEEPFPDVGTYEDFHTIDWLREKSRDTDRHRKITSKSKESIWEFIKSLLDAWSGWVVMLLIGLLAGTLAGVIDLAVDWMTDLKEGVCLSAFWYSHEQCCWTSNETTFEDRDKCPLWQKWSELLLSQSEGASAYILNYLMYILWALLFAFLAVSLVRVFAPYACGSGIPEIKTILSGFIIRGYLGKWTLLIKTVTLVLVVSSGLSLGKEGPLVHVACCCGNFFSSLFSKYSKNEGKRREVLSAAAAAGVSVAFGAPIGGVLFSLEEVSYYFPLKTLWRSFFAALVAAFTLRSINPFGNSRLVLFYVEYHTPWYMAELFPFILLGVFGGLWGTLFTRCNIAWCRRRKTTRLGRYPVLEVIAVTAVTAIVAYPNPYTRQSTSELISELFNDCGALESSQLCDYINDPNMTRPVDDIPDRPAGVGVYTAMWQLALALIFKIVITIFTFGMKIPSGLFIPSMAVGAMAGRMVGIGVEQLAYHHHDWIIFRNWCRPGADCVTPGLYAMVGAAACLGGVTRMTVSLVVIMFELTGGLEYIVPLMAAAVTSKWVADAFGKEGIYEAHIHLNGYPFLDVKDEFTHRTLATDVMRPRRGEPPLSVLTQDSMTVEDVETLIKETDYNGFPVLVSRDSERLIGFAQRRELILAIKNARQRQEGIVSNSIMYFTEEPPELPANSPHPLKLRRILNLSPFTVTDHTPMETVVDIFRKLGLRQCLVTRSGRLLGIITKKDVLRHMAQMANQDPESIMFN
# Description: as §1, §2
# [3] = target: T3, human ClC-4 (Homo sapiens, UniProt P51793); assay: Two-electrode voltage-clamp recording of human ClC-4 expressed in Xenopus oocytes, chloride channel inhibitor effect
# T3 construct: one clone was isolated, which contained the entire coding region; expressed in transfected cells; host or cells: Xenopus laevis oocytes injected with in vitro transcribed cRNA
# T3 sequence (P51793 1-760): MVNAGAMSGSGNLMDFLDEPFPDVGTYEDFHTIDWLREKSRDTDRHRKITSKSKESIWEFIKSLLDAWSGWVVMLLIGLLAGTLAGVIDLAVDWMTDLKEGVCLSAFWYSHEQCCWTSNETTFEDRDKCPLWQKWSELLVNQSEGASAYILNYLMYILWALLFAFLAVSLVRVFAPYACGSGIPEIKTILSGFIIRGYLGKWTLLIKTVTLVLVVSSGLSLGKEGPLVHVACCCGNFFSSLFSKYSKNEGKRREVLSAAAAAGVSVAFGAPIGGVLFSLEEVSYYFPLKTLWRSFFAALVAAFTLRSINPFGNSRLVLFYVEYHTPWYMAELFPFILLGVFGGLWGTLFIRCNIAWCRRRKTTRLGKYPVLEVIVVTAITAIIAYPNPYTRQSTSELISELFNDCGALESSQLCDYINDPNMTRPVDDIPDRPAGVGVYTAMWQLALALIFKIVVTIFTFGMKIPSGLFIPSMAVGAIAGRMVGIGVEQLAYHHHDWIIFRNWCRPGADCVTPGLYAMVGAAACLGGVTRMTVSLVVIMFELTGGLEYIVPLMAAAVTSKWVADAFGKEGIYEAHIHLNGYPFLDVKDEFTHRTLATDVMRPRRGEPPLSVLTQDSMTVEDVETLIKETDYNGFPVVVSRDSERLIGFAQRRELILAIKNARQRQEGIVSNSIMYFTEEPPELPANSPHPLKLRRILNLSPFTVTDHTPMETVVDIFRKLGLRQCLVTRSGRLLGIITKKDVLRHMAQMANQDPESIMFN
# Description: as §1, §2
# [4] = 0.3 mM NFA, pH 7.4, Xenopus oocytes
# [5] = 0.1 mM NPPB, optimal pH, Xenopus oocytes
"inhibition on ion channel conductance ([1]; 0.3 mM NFA, pH 5.5, Xenopus oocytes)","inhibition on ion channel conductance [2, 4]","inhibition on ion channel conductance [3, 4]","inhibition on ion channel conductance [2, 5]","inhibition on ion channel conductance [3, 5]",SMILES,"inhibition on ion channel conductance [1, 5]"
significantly inhibited,only a slight inhibitory effect,only a slight inhibitory effect,–,–,"O=C(O)c1cccnc1Nc1cccc(C(F)(F)F)c1 [NFA, niflumic acid]",–
–,–,–,no apparent effect,no apparent effect,"O=C(O)c1cc([N+](=O)[O-])ccc1NCCCc1ccccc1 [NPPB, 5-nitro-2-(3-phenylpropylamino)-benzoic acid]",slightly inhibit; also recorded: inhibited
